The series can be described thus: physchem. The note with it: organic solvent or mixture, thermodynamic from solid.

In general, solubility refers to how much of the substance goes into solution per volume. Take `N#Cc1ccc(N(c2ccc(C#N)cc2)c2ccc(N(c3ccc(N4C(=O)C=CC4=O)cc3)c3ccc(N4C(=O)C=CC4=O)cc3)cc2)cc1` [Compound 6, N,N-bis(4-maleimidophenyl)-N′,N′-bis(4-cyanophenyl)-1,4-phenylenediamine]: the solubility (Solubility in CHCl3) is over 1000 µg/mL; the solubility (Solubility in DMAc) was over 1000 µg/mL; the solubility (Solubility in DMF) was over 1000 µg/mL; the solubility (Solubility in DMSO) was over 1000 µg/mL; the solubility (Solubility in MeOH) was under 1000 µg/mL; the solubility (Solubility in NMP) is over 1000 µg/mL. The solubility (Solubility in THF) is over 1000 µg/mL and the solubility (Solubility in m-Cresol) is over 1000 µg/mL.

The values are drawn from patent publication US8088932B2, “Pentaaryldiamine-containing bismaleimide compound and method of producing the compound” (Industrial Technology Research Institute, priority 2008, dated 2012).
